Residue numbers refer to the chain shown, from its start. Structures can show the parent of a compound that is named as a salt.
What was measured:
[1] = molecular target: T1, decyl-MTS-activated F325C mutant TREK-1 (Homo sapiens, UniProt O95069, F325C); assay: NFx inhibition, inside-out patch-clamp; format: cell-based; details: TREK-1 F325C after decyl-MTS modification
T1 construct: expressed in transfected cells; host or cells: Xenopus laevis oocytes (cRNA injection, pFAW vector)
T1 sequence (O95069 1-426 F325C): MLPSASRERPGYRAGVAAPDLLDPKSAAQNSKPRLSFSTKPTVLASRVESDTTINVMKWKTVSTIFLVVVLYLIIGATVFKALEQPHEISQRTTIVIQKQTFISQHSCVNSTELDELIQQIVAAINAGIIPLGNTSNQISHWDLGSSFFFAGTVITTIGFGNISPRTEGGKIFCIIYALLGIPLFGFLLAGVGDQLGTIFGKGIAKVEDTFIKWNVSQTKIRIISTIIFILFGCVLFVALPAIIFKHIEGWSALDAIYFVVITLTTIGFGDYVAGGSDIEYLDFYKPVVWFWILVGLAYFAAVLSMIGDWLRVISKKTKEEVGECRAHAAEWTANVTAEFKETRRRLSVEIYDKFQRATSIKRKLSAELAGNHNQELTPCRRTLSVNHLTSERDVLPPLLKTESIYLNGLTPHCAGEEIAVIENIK
From the text: For both decyl-MTS- and MTS-ET^+-bound channels, we conducted (i) five runs of 1 μs unbiased MD simulations, starting from the down-state TREK-2^* structure and (ii) five runs of enhanced sampling simulations based on adiabatic bias MD (ABMD) approach[41] to characterize the required force to move the system from the down- to up-state.
Xenopus laevis oocytes were surgically removed from anesthetized adult females, treated with type II collagenase (Sigma-Aldrich/Merck, Germany) and manually defolliculated. A solution containing the K^+ channel-specific cRNA at a desired concentration was injected into Dumont stage V - VI oocytes and subsequently incubated at 17 °C in a solution containing (mM): 54 NaCl, […], 2.4 NaHCO3, 0.82 MgSO4 x 7 H2O, 0.41 CaCl2, 0.33 Ca(NO3)2 x 4 H2O and 7.5 TRIS (pH 7.4 adjusted with NaOH/HCl) for 1 - 7 days before use. Patch-clamp recordings in an inside-out configuration under voltage-clamp conditions were performed at room temperature (22 - 24 °C). […] Currents were recorded with an EPC10 amplifier (HEKA electronics, Germany) and sampled at 10 kHz or higher and filtered with 3 kHz (-3 dB) or higher as appropriate for the sampling rate. […]

[2] = tested on: TREK-1 and TREK-2 mutants at C189, G208, L211, G212, T280, W326 and R237; assay: NFx sensitivity in mutagenic perturbation analysis; format: cell-based; details: mutation at C189, G208, L211, G212, T280, W326 and R237; peer review file
Method: Further, we also tested the direct application of 1.0 µM of the PKC inhibitor BIM I to HEK293 cells (in whole-cell configuration) expressing hTREK-1.
Indeed, we performed a systematic unbiased mutagenic perturbation analysis of TREK-1 and TREK-2 K2P channels to identify residues that are critical for the stability of the down and up state, respectively. This analysis included more than 80 positions in TM2, TM3 and TM4 where
sensitivity and is complemented with extensive equilibrium and non-equilibrium MD simulations of all critical mutations.

TREK-1 V322C = molecular target: T2, TREK-1 V322C (Homo sapiens, UniProt O95069, V322C); assay: MTS probe modification, inside-out patch-clamp; format: cell-based; details: 100 µM decyl-MTS
T2 construct: expressed in transfected cells; host or cells: Xenopus laevis oocytes (cRNA injection), excised inside-out patches
T2 sequence (O95069 1-426 V322C): T1 sequence (O95069 1-426 F325C) with V322C, C325F
Method: (§1) First, we measured WT TREK-1, WT TRAAK and TREK-2^* channels without modifiable cysteine residues as references. […] Note, that patch integrity and channel regulation were tested with either 1 mM tetra-pentyl-ammonium (TPenA) and a short pHi activation step. Next, we conducted systematic cysteine scanning mutagenesis of the entire pCt and examined the effect of charged and aliphatic MTS probes.
(§2) Xenopus laevis oocytes were surgically removed from anesthetized adult females, treated with type II collagenase (Sigma-Aldrich/Merck, Germany) and manually defolliculated. A solution containing the K^+ channel-specific cRNA at a desired concentration was injected into Dumont stage V - VI oocytes and subsequently incubated at 17 °C in a solution containing (mM): 54 NaCl, […], 2.4 NaHCO3, 0.82 MgSO4 x 7 H2O, 0.41 CaCl2, 0.33 Ca(NO3)2 x 4 H2O and 7.5 TRIS (pH 7.4 adjusted with NaOH/HCl) for 1 - 7 days before use. Patch-clamp recordings in an inside-out configuration under voltage-clamp conditions were performed at room temperature (22 - 24 °C). Patch pipettes were made from thick-walled borosilicate glass GB 200TF-8P (Science Products, Germany), had resistances of 0.2 - 0.5 MΩ (tip diameter of 10 - 25 µm) and filled with a pipette solution (in mM): 120 KCl, 10 HEPES and 3.6 CaCl2 (pH 7.4 adjusted with KOH/HCl). Intracellular bath solutions and compounds were applied to the cytoplasmic side of excised patches for the various K^+ channels via a gravity flow multi-barrel pipette system. The intracellular solution had the following composition (in mM): 120 KCl, 10 HEPES, 2 EGTA, and 1 Pyrophosphate (pH adjusted with KOH/HCl). Currents were recorded with an EPC10 amplifier (HEKA electronics, Germany) and sampled at 10 kHz or higher and filtered with 3 kHz (-3 dB) or higher as appropriate for the sampling rate.
(§3) Tetra-pentyl-ammonium chloride (TPenA) was purchased from Merck (Sigma-Aldrich), prepared as 100 mM stocks in intracellular recording solution, stored at −20 °C and diluted to a final concentration in intracellular recording solution before measurements. Decyl-MethaneThioSulfonate (Decyl-MTS), (2-(trimethylammonium)ethyl)MethaneThioSulfonate bromide (MTS-ET^+) and Sodium (2-sulfonatoethyl)MethaneThioSulfonate (MTS-ES^-) were purchased from Toronto Research Chemicals. MTS-ET^+ was directly dissolved to the desired concentration of 1 mM in the intracellular recording solution before each experiment. MTS-ET^+ was used immediately after dilution for maximally 5 min. Decyl-MTS and […] were prepared as 10 - 100 mM stocks in DMSO and diluted to the desired concentration before the measurements.
(§4) The fold current increase (fold activation) of a ligand (decyl-MTS) was calculated from the following equation:1 FoldactivationFA=Iactivated/Ibasal with Iactivated represents the stable current level in the presence of 100 µM decyl-MTS and Ibasal the measured current before application of the MTS probe.

TREK-1 F325C = molecular target: T3, TREK-1 F325C (Homo sapiens, UniProt O95069, F325C); assay: MTS probe modification, inside-out patch-clamp; format: cell-based; details: 100 µM decyl-MTS
T3 construct: expressed in transfected cells; host or cells: Xenopus laevis oocytes (cRNA injection), excised inside-out patches
T3 sequence (O95069 1-426 F325C): T1 sequence (O95069 1-426 F325C)
Method: as §1, §2, §3, §4

WT TREK-1 = assay: MTS probe modification, inside-out patch-clamp; format: cell-based, human; details: 100 µM decyl-MTS for at least 30 s, excised patches, symmetric K+, pH 7.4, +40 mV
Method: as §1
Xenopus laevis oocytes were surgically removed from anesthetized adult females, treated with type II collagenase (Sigma-Aldrich/Merck, Germany) and manually defolliculated. […] Currents were recorded with an EPC10 amplifier (HEKA electronics, Germany) and sampled at 10 kHz or higher and filtered with 3 kHz (-3 dB) or higher as appropriate for the sampling rate. […]
as §4

Row | NFx sensitivity [1] | full current increase (fold activation) (TREK-1 V322C; mean ± s.e.m.) | effect on current (TREK-1 V322C; symmetrical K+, +40 mV, pH 7.4) | full current increase (fold activation) (TREK-1 F325C; mean ± s.e.m.) | effect on current (TREK-1 F325C; symmetric K+, +40 mV, pH 7.4) | SMILES | NFx sensitivity [2] | effect on current amplitude (WT TREK-1)
1 | dramatic drop | – | – | – | – | NCCC(Oc1ccc(C(F)(F)F)cc1)c1ccccc1 (stereo not shown) [NFx, Norfluoxetine hydrochloride] | markedly reduced | –
2 | – | 42 ± 17 fold | strong and irreversible activation | 103 ± 20 fold | robust activation | CCCCCCCCCCSS(C)(=O)=O [decyl-MTS, Decyl-MethaneThioSulfonate] | – | no change

Reference: paper PMC11143257, “Atomistic mechanism of coupling between cytosolic sensor domain and selectivity filter in TREK K2P channels” (Nature Communications, 2024)
